Experimental data taken from a melting point compilation (Tetko et al.; mined from patent text by program, amines drawn as free bases though some values may be those of a salt).

Row | SMILES | melting point
1 | CNS(=O)(=O)c1cscc1CCl | 75 to 76 °C
2 | CCP(CC)c1ccc(Cl)cc1 | 77 to 79 °C
3 | CC(=O)Nc1ccnn1-c1c(F)c(F)c(C(F)(F)F)c(F)c1F | 102 to 104 °C
4 | COC(=O)CC(CSC(C)=O)C(=O)O (centres undefined) | 120 to 121 °C
5 | C=CCOc1ccccc1OCC=Cc1ccc(OC)c(OC)c1 | 60 to 60.5 °C
6 | Cc1cc(CC(C)NCCC(c2ccccc2)c2ccccc2)ccc1O (centres undefined) | 115 to 118 °C
7 | CCOC(=O)c1cnc(Nc2ccc(N(C)C)cc2)[nH]c1=O | 246 to 248 °C
8 | O=C1c2c(cc(O)c(Cl)c2Cl)CC1C1CCCC1 (centres undefined) | 222 to 225 °C
9 | N#CC1(C#N)C2CC(C3OC32)C1(Cl)Cl (centres undefined) | 229 °C
10 | COc1ccc2[nH]cc(C=C[N+](=O)[O-])c2c1 | 151 to 152 °C
11 | COc1ccc(S(=O)(=O)N2CSCC2=O)cc1 | 129 to 130 °C
12 | CC(C)NCC1(O)CCN(c2c(F)cc3c(=O)c(C(=O)O)cn(C4CC4)c3c2F)C1 (centres undefined) | 213 to 214 °C
13 | COC(=O)c1ccccc1C(=O)c1ccc(N2CCC(N3C(=O)OCc4ccc(Cl)cc43)CC2)c([N+](=O)[O-])c1 | 90 to 92 °C
14 | Cc1ccccc1CC1=NNC(=O)CC1 | 123 to 125 °C
15 | Nc1cc(Cl)nc(S(=O)(=O)Cc2cccc(Br)c2)n1 | 191 to 192 °C
16 | CC1CCC(=NN)c2ncc(C(N)=O)c(=O)n21 (centres undefined) | 248 to 250 °C
17 | Cc1c(C(F)(F)F)cnn(-c2cc(OCC=O)c(Cl)cc2F)c1=O | 107 °C
18 | CC(=O)C(Cl)=NNc1ccc([N+](=O)[O-])cc1 | 180 to 183 °C
19 | Cn1nc(O)cc1C(F)(F)C(F)(F)F | 119 to 124 °C
20 | CNC(=C[N+](=O)[O-])NCCSCc1csc(CO)n1 | 131 to 132 °C
21 | O=C(CC1CCCC1)c1ccc[nH]1 | 49 to 51 °C
22 | O=C(C[C@@H](O)C(F)(F)F)N[C@H]1CC[C@H](CCN2CCC(c3cccc4c3CCO4)CC2)CC1 | 189 °C
23 | Cn1cc(C(N)=O)c(=O)c2sccc21 | 255 to 258 °C
24 | CON=C(C(=O)OC)c1csc(N)n1 | 165 °C
25 | O=C(NC1CN2CCC1CC2)c1cccc2oc(-c3ccc(F)cc3)nc12 (centres undefined) | 208 to 209 °C
26 | CCCCCCC(C)(C)c1ccc(C2=CCCNC2)c(O)c1 | 122 to 123 °C

Row | SMILES | melting point
27 | C=C1C(=O)NC(=O)N1c1ccccc1 | 168 to 170 °C
28 | O=C(O)c1c(C(F)(F)F)nn(-c2c(Cl)cc(C(F)(F)F)cc2Cl)c1C(F)(F)F | 185 to 190 °C
29 | CCNc1cn(-c2cncc(F)c2)nc1C | 85 to 86 °C
30 | CC(C)C1(C)NC(c2ccccc2C(=O)N(C)C)=NC1=O (centres undefined) | 144 to 146 °C
31 | Cc1cnc(C2=NC(C)(C(C)C)C(=O)N2)c(C(=O)c2ccc(C)s2)c1 (centres undefined) | 173 to 175 °C
32 | CN1C(=O)C2C3C=CC(C3)C2(c2ccc(N)cc2)C1=O (centres undefined) | 129 to 131 °C
33 | COc1cc(N2C(=O)C3(CC3)[C@@H](O)[C@@H]2C)ccc1C#N | 167 to 169 °C
34 | CC(=O)OC1Oc2ccc(Br)cc2C1(C)C (centres undefined) | 73 to 80 °C
35 | CCCCCCCCOc1ccc(CCC(N)(CO)CCC)cc1 (centres undefined) | 43 to 47 °C
36 | N=C(N)NC(=O)c1nc(F)c(N)nc1N | 233 °C
37 | CC(=O)N1CCc2ccc(N)cc2C1 | 98 to 100 °C
38 | C=CCN1CCNC(=O)c2cccc([N+](=O)[O-])c21 | 80 to 82 °C
39 | CCCCS(=O)c1nc[nH]n1 (centres undefined) | 82 to 83 °C
40 | CCOC(=O)c1c(O)c2cc(F)ccc2c(=O)n1CC1CC1 | 61 to 62 °C
41 | CC(=O)n1nc(-c2cc(C(C)(C)C)c(O)c(C(C)(C)C)c2)c2cccnc21 | 169 to 171 °C
42 | O=Cc1cc(-c2ncco2)ccc1Br | 100 to 104 °C
43 | CC1CCCCN1C(=O)C=Cc1ccc(F)cc1 (centres undefined) | 114 to 116 °C
44 | CCOC(=O)c1cn(C2CC2)c2c(F)c(F)c(F)c(C)c2c1=O | 176 to 177 °C
45 | CCOc1c(C(C)=O)cnc2[nH]ncc12 | 245 to 248 °C
46 | CCOC(=O)c1cn(C2CC2)c2c(F)c(N3CC[C@H](N)C3)c(F)cc2c1=O | 227 to 228 °C
47 | CSc1ccc(C(=S)N2CCCC2)cc1 | 116 to 118 °C
48 | C=CCN1CCC(O)(c2cc(F)cc(F)c2)C1 (single isomer, unassigned; (-)) | 102 to 103 °C
49 | CCOC(=O)c1ccc(OC)nc1C(F)(F)F | 150 to 152 °C
50 | Cn1ncc2[nH]c3cccc(F)c3c(=O)c21 | > 300 °C
51 | CC(=O)OCC(N=O)C(C)(C)Cl (centres undefined) | 117 to 119 °C

The remaining lines, values ahead:

Row | melting point | SMILES
52 | 198 to 199 °C | Cc1ccc2c(NC(=NC#N)NC(NC(=O)Cc3ccc(Cl)cc3)C(C)(C)C)cccc2n1 (centres undefined)
53 | 60 to 62 °C | CCOC(=O)CCCNc1ccccc1-c1ccccc1
54 | 138 to 140 °C | CCSc1nc2c(C)sc(C(=O)O)c2n1Cc1ccc(-c2ccccc2-c2nnnn2C(c2ccccc2)(c2ccccc2)c2ccccc2)cc1
55 | 237 to 238 °C | O=C(O)CCC(=O)c1ccc(NC(=O)CCN2CCC(c3ccccc3)CC2)cc1
56 | 202 to 204 °C | CCC(C)(CC)c1nnc(NC(=S)c2c(OC)cccc2OC)s1
57 | 269 to 270 °C | COC1CN(C(=O)c2cnn(C)c2C(=O)Nc2ccn3nc(-c4ccccc4)nc3c2)C1
58 | 324 to 327 °C | Cc1cc(=O)c2[nH]nc(-c3ccc(Cl)cc3)c2[nH]1
59 | 195 to 197 °C | COn1c(C(C)(C)C)nc2c(N)nc3ccccc3c21
60 | 210 to 212 °C | CCC(C)CNc1cccc(-c2ccnc3c(C(=O)c4cccs4)cnn23)c1 (centres undefined)
61 | 152 to 155 °C | Brc1ccc2c(c1)N=C(NCc1cccnc1)c1ccccc1N2
62 | 82 to 86 °C | Oc1ccc(O)c(-c2ccc(Cl)cc2Cl)c1
63 | 66 to 67 °C | N#CCCNC(=O)c1cccc(-c2cccc3c(F)c(Cc4cccc(C(F)(F)F)c4)sc23)c1
64 | 172 to 173 °C | CCN1c2ncc(COc3ccccc3O)cc2C(=O)N(C)c2ccc(Cl)nc21
65 | 183 to 184 °C | COc1ccc(C(=O)Nc2ccccc2/C=C/c2ccnc(C)c2)cc1
66 | 155 to 156 °C | Cc1c(NC(=O)CC(C)(C)C)cc2c(c1C)OC(C)(C)C2c1ccccc1OC(F)(F)F (centres undefined)
67 | 76.5 °C | FC(F)(F)c1cccc(C(=CC2=NCCN2)c2ccc3ccccc3n2)c1
68 | 163 to 168 °C | N#Cc1cc(NC(=O)c2cc3ccccc3s2)ccc1N(CCO)CCO
69 | 159 to 160 °C | CCn1nc2c(N)nc3ccccc3c2c1CCCCO
70 | 174 to 175 °C | Cc1ccc(-c2ccc3c(c2)C=C(C(=O)Nc2ccc(CN4CCN(C)CC4)cc2)CC3)cc1
71 | 230 to 231 °C | ON=Cc1ccc(-c2ccc(O)cc2)c2sccc12
72 | 76 to 77 °C | CC(C)CCC(=O)N1C(=O)O[C@H](c2ccccc2)[C@@H]1C
73 | 170 °C | O=C(c1ccc(Cl)cc1)c1cnc2ccc(Cl)cc2c1Cl
74 | 130 to 132 °C | CCCCOCCOc1ccc(-c2ccc(N3CCC4(C3)OCCO4)c(C=C(C)C(=O)O)c2)cc1
75 | 338 to 339 °C | COc1ccccc1-n1c(=O)[nH]c2c(C(N)=O)nc(-c3cccc(C(N)=O)c3)nc21
76 | 190 to 193 °C | Cc1oc2ccccc2c1C(=O)N(Cc1ccccc1)Cc1ccc2cc(O)ccc2c1
77 | 142 °C | COC(=O)c1ccnc(Nc2ccc(SC)cc2)c1
78 | 194 to 196 °C | CCOCc1nc2c(N)nc3cc(-c4cccnc4)ccc3c2n1CCNC(=O)NC(C)C

Row | melting point | SMILES
79 | 154 to 156 °C | ICCOc1ccc(C2=C(c3ccccc3)CCCc3ccccc32)cc1
80 | 259 to 261 °C | CC(C)(C)C(NC(=O)c1ccc(Cl)cc1)Nc1c(Nc2cccnc2Cl)c(=O)c1=O (centres undefined)
81 | 222 to 223 °C | CC(=O)Nc1ccc(/C=C/C(=O)NCC(=O)N(C)c2ccc(Cl)c(CBr)c2Cl)cn1
82 | 153 to 157 °C | CCCCOC(=O)n1nc(-c2cc(Cl)c(C)c(Cl)c2)ccc1=O
83 | 136 °C | CCOc1ccc(S(=O)(=O)N(CC(=O)NN=C2C(=O)Nc3ccccc32)c2ccccc2)cc1
84 | 313 to 315 °C | O=c1nc(-c2ccccn2)sc2ccc(O)cc12
85 | 130 °C | O=C(OCc1ccccc1)N1CCC(Nc2nc3cccnc3n2Cc2ccc(F)cc2)CC1
86 | 85 to 86 °C | COc1ccc(CSc2cccc(N)c2)cc1
87 | 219 to 222 °C | Cc1c(-c2ccc(NC(=O)C(C)C)cc2)sc2c1c(=O)c(C(=O)C(C)C)cn2Cc1c(F)cccc1F
88 | 88 to 92 °C | Cc1ccc2ccc3ccccc3c2c1O
89 | 149 to 150 °C | CSc1cc2ccc(-c3ccccc3)cc2cc1O
90 | 186 to 188 °C | COC(=O)c1cn2c(-c3ccc(-c4ccccc4)cc3)csc2n1
91 | 125 to 128 °C | COCCS(=O)(=O)c1ccc(F)c(C#Cc2cc(Cl)ccc2OCC(=O)O)c1
92 | 181 to 183 °C | COc1ccc([C@@H]2Sc3cc(Oc4ccccc4)ccc3NC(=O)[C@@H]2O)cc1
93 | 133 to 135 °C | CCCc1c(OCC(O)CSc2nc3ccc(C(=O)O)cc3[nH]2)ccc(C(C)=O)c1O (centres undefined)
94 | 173 °C | O=C1CCC(c2ccccc2)(c2ccccc2)[C@@H]2CN(C(=O)Cc3ccccc3)C[C@H]12 (racemic)
95 | 58 to 59 °C | CCCc1c(OCCCOc2ccc3c(c2CCC)OC(C(C)=O)(C(=O)OC)CC3)ccc(C(C)=O)c1O (centres undefined)
96 | 232 to 234 °C | Cc1ccn2nc(S(=O)(=O)Nc3c(Cl)cccc3Cl)nc2c1
97 | 155 to 156 °C | CCOC(=O)C(O)(CC(=O)c1ccc(-n2ccnc2)cc1)C(=O)OCC
98 | 69.5 to 70.5 °C | C=C(C)C(=O)Oc1ccc(C(=O)c2ccccc2)cc1
99 | 130 to 131 °C | COC(=O)C[C@H](NC(c1ccccc1)(c1ccccc1)c1ccccc1)C(=O)C(=[N+]=[N-])C(=O)N(C)OC
100 | 118 to 120 °C | Cc1oc2c(NC(=O)c3c(C(=O)OC(C)C)cccc3[N+](=O)[O-])cccc2c1C(C)(C)O
101 | 245 to 246 °C | C/C(=C\c1ccc(C(=O)O)cc1)c1ccc(O)c(C23CC4CC(CC(C4)C2)C3)c1
102 | 173 to 174 °C | CCOCc1nc2c(N)nc3cccnc3c2n1Cc1ccccc1
103 | 133 °C | CC(=O)N(O)Cc1cccc(C(O)C#Cc2ccsc2)c1 (centres undefined)
104 | 152 to 154 °C | OC(CCN1CCC(c2ccc(Cl)cc2)CC1)c1ccc(Cl)cc1 (centres undefined)
